# How the values were obtained:
# [1] = CEREP mini panel (56 assays: enzymes, receptors, ion channels); conditions: read-out: IC50s for 56 assays in a CEREP mini panel
# DIO C57BL/6 mice = experiment: Body weight, food intake and body composition in DIO mice over two weeks; type: in vivo, mouse; conditions: 60 mg/kg oral once a day
# Experimental: Body composition of mice was determined using Quantitative Nuclear Magnetic Resonance analysis (ECHO MRI, 3–1 Composition Analyzer; Echo Medical Systems, Houston, TX). DIO mice were randomized by body weight and fat mass prior to administration of compounds. Changes in body weight, cumulative food intake, and fat and lean mass were recorded for up to a two week period.
# While compound 18 led to significant glucose lowering in an OGTT studies when dosed acutely, it remained unclear if the mechanism of TGR5-stimulated GLP-1 secretion desensitizes over time. […] In order to determine if desensitization occurs, as well as explore the potential for changes in body weight by compound 18, we obtained DIO C57BL/6 mice and randomly assigned them into either an acute or chronic study. For the acute experiment, overnight-fasted DIO mice were dosed with vehicle or 60 mg/kg of compound 18 the next morning, and an OGTT was performed 30 minutes after compound dosing using 2 g/kg glucose. For the chronic study, DIO mice were orally dosed with vehicle or 60 mg/kg compound 18 once a day for two weeks; body weights and food intake were measured during the treatment period. After two weeks, mice were over-night fasted, dosed the following morning, and subjected to an OGTT 30 minutes after compound dosing.
# Diet-induced obese (DIO) C57BL/6 mice were either dosed acutely or chronically for two weeks with vehicle (white circles, white bars) or compound 18 at 60 mg/kg (black triangles, black bars). An OGTT on over-night fasted DIO mice was performed after either a single dose (A, acute) or after two weeks of dosing (B, chronic), using 2 g/kg glucose dosed 30 minutes after compound dosing. Changes in body weights (C) and cumulative food intake (D) were recorded for the two week period. n = 8; mean +/- SEM. * P < 0.01.
# FXR = molecular target: T1, FXR (Homo sapiens, UniProt Q96RI1); experiment: Selectivity: nuclear hormone receptor FXR
# T1 sequence (Q96RI1 1-486): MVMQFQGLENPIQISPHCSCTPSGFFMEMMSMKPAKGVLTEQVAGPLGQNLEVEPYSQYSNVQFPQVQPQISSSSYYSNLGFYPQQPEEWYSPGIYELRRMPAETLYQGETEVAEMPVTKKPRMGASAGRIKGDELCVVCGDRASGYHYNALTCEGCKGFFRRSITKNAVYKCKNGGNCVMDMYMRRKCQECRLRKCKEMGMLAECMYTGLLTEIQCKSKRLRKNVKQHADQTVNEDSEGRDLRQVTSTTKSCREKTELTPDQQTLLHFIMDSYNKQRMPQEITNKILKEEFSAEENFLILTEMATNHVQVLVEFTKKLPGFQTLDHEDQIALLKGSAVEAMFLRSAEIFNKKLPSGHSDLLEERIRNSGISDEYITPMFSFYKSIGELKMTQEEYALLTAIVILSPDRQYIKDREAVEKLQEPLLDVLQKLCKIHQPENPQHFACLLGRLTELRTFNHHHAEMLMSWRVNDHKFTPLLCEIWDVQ
# C57BL/6 mice = experiment: Three-day study on GLP-1 and gallbladder filling (bile weight); type: in vivo, mouse
# Experimental: C57BL/6 mice, Tgr5 KO mice, or their wild-type littermate controls were orally dosed with vehicle or compounds twice per day for 3 days, with overnight fasting performed on the evening of day 2. On the morning of day 3, animals were dosed orally with compounds and then euthanized by CO2 asphyxiation at 30 minutes after the fifth dose. Plasma was collected for analysis of GLP-1 (X-36) amide as mentioned above, followed immediately by incision into the abdominal cavity to remove and weigh bile from the gallbladder.
# On the third day, compound was dosed in the morning followed 30 minutes later by measurement of bile filling (A) by use of a needle and syringe and GLP-1 (x-36) amide (B) by cardiac puncture.
# GPR40 = GPR40 (Homo sapiens, UniProt O14842); experiment: Selectivity: enteroendocrine GPCR GPR40
# GPR119 = molecular target: T2, GPR119 (Homo sapiens, UniProt Q8TDV5); experiment: Selectivity: enteroendocrine GPCR GPR119
# T2 sequence (Q8TDV5 1-335): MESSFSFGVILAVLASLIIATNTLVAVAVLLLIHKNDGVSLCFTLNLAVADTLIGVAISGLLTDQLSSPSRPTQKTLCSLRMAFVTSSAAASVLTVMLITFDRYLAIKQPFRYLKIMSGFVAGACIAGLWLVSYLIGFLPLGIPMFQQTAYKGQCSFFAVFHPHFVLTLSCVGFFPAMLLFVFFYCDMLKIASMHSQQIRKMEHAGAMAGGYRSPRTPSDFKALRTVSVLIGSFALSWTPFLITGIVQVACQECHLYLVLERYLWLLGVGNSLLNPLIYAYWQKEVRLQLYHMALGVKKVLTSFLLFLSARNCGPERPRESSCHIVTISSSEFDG
# [2] = 1, 3, 10, 30, 100 mg/kg oral BID 3 days, 30 min after last dose
# GPR40, sequence (O14842 whole entry, species assumed): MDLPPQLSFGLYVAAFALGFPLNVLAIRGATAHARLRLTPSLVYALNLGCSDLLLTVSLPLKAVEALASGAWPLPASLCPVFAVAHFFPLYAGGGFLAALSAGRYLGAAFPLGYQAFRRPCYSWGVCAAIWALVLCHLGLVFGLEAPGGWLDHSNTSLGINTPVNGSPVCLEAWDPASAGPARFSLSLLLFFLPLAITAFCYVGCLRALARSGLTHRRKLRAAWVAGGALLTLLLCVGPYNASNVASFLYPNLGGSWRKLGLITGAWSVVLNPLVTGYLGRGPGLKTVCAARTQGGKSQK
structure (smiles),measurement,setting,value
CC(=O)N1CCC(C(C)N(C(=O)COc2cccc3sc4nc(C)cn4c23)c2ccc(F)cc2)CC1 (stereo not drawn) [compound 18],IC50,[1],> 10 µM
same,food intake,DIO C57BL/6 mice,no change in food intake
same,reduction in body weight gain versus vehicle,DIO C57BL/6 mice,1.4 g
same,lean mass,DIO C57BL/6 mice; P = 0.995,no difference in lean mass
same,gain in fat mass,DIO C57BL/6 mice; p = 0.067,trend towards reduced gain in fat mass
same,EC50,FXR,> 125 µM
same,bile weight (gallbladder filling),C57BL/6 mice; [2],clear dose dependent increase in bile weight
same,plasma GLP-1 levels,C57BL/6 mice; [2],elevated GLP-1 levels
same,doses with significant effects on GLP-1 secretion,C57BL/6 mice; oral BID 3 days,≥ 30 mg/kg
same,doses with significant effects on bile weight,C57BL/6 mice; oral BID 3 days,≥ 3 mg/kg
same,EC50,GPR40,> 125 µM
same,EC50,GPR119,> 125 µM

# Source: publication PMC4551797 (PLoS ONE, 2015)
